Assay [1] deals with BRAPP. Kind of assay: Postemergence foliar-applied weed control, direct-seeded rice (greenhouse). The format is in vivo. The text has this: Seeds or nutlets of the desired test plant species were planted in a soil matrix prepared by mixing aloam or sandy loam soil (e.g., 28.6 percent silt, 18.8 percent clay, and 52.6 percent sand, with a pH of about 5.8 and an organic matter content of about 1.8 percent) and calcareous grit in an 80 to 20 ratio. The soil matrix was contained in plastic pots with a volume of 1 quart and a surface area of 83.6 square centimeters (cm^2). When required to ensure good germination and healthy plants, a fungicide treatment and/or other chemical or physical treatment was applied. The plants were grown for 8-22 days in a greenhouse with an approximate 14 hour (h) photoperiod which was maintained at about 29° C. during the day and 26° C. during the night. Nutrients (Peters Excel® 15-5-15 5-Ca 2-Mg and iron chelate) were applied in the irrigation solution as needed and water was added on a regular basis. Supplemental lighting was provided with overhead metal halide 1000-Watt lamps as necessary. The plants were employed for testing when they reached the first through fourth true leaf stage.
Treatments consisted of the acid or esters of 4-amino-3-chloro-5-fluoro-6-(4-chloro-2-fluoro-3-methoxy-phenyl)pyridine-2-carboxylic acid (Compound A), each formulated as an SC (suspension concentrate), and various fungicidal components alone and in combination. Forms of compound A were applied on an acid equivalent basis.
Treatment requirements were calculated based upon the rates being tested, the concentration of active ingredient or acid equivalent in the formulation and a 12 milliliter (mL) application volume at a rate of 187 liters per hectare (L/ha).
For treatments comprised of formulated compounds, measured amounts of compounds were placed individually in 25 mL glass vials and diluted in a volume of 1.25% volume per volume (v/v) Agri-Dex® crop oil concentrate to obtain 12× stock solutions. […] Application solutions were prepared by adding an appropriate amount of each stock solution (e.g., 1 mL) and diluted to the appropriate final concentrations with the addition of […] of an aqueous mixture of 1.25% (v/v) crop oil concentrate so that the final spray solutions contained 1.25+/−0.05% (v/v) crop oil concentrate.
For treatments comprised of technical compounds, weighed amounts can be placed individually in 25 mL glass vials and dissolved in a volume of 97:3 volume per volume (v/v) acetone/dimethyl sulfoxide (DMSO) to obtain 12× stock solutions. […] When technical materials are used, the concentrated stock solutions can be added to the spray solutions so that the final acetone and DMSO concentrations of the application solutions are 16.2% and 0.5%, respectively.
As required, additional water and/or 97:3 v/v acetone/DMSO was added to individual application solutions so that the final acetone and DMSO concentrations of the application solutions being compared were 8.1% and 0.25%, respectively
All stock solutions and applications solutions were visually inspected for compound compatibility prior to application. Spray solutions were applied to the plant material with an overhead Mandel track sprayer equipped with 8002E nozzles calibrated to deliver 187 L/ha over an application area of 0.503 square meters (m^2) at a spray height of 18 to 20 inches (46 to 50 cm) above average plant canopy height. Control plants were sprayed in the same manner with the solvent blank.
The treated plants and control plants were placed in a greenhouse as described above and watered by sub-irrigation to prevent wash-off of the test compounds. After approximately 3 weeks, the condition of the test plants as compared with that of the untreated plants was determined visually and scored on a scale of 0 to 100 percent where 0 corresponds to no injury or growth inhibition and 100 corresponds to complete kill. […]

The test system of assay [2] is CYPRO. Kind of assay: In-water applied weed control, transplanted paddy rice (greenhouse). The class given is in vivo, Cyperus rotundus L. (purple nutsedge). To be noted: 19 DAA. The protocol: Weed seeds or nutlets of the desired test plant species were planted in puddled soil (mud) prepared by mixing a shredded, non-sterilized mineral soil (50.5 percent silt, 25.5 percent clay, and 24 percent sand, with a pH of about 7.6 and an organic matter content of about 2.9 percent) and water at a 1:1 volumetric ratio. The prepared mud was dispensed in 365 mL aliquots into 16-ounce (oz.) non-perforated plastic pots with a surface area of 86.59 square centimeters (cm^2) leaving a headspace of 3 centimeters (cm) in each pot. Rice seeds were planted in Sun Gro MetroMix® 306 planting mixture, which typically has a pH of 6.0 to 6.8 and an organic matter content of about 30 percent, in plastic plug trays. Seedlings at the second or third leaf stage of growth were transplanted into 860 mL of mud contained in 32-oz. non-perforated plastic pots with a surface area of 86.59 cm^2 4 days prior to herbicide application. The paddy was created by filling the headspace of the pots with 2.5 to 3 cm of water. When required to ensure good germination and healthy plants, a fungicide treatment and/or other chemical or physical treatment was applied. The plants were grown for 4-22 days in a greenhouse with an approximate 14 hour (h) photoperiod which was maintained at about 29° C. during the day and about 26° C. during the night. Nutrients were added as Osmocote® (17:6:10, N:P:K+minor nutrients) at 2 g per cup. Water was added on a regular basis to maintain the paddy flood, and supplemental lighting was provided with overhead metal halide 1000-Watt lamps as necessary. The plants were employed for testing when they reached the first through fourth true leaf stage.
Treatments consisted of the acid or esters of 4-amino-3-chloro-5-fluoro-6-(4-chloro-2-fluoro-3-methoxy-phenyl)pyridine-2-carboxylic acid (compound A) each formulated as an SC (suspension concentrate) and various fungicidal components alone and in combination. Forms of compound A were applied on an acid equivalent basis.
Treatment requirements for each compound or fungicidal component were calculated based upon the rates being tested, the concentration of active ingredient or acid equivalent in the formulation, an application volume of 2 mL per component per pot, and an application area of 86.59 cm^2 per pot.
For formulated compounds, a measured amount was placed in an individual 100 or 200 mL glass vial and was dissolved in a volume of 1.25% (v/v) Agri-Dex® crop oil concentrate to obtain application solutions.
For technical grade compounds, a weighed amount was placed in an individual 100 to 200 mL glass vial and dissolved in a volume of acetone to obtain concentrated stock solutions.
Applications were made by injecting with a pipetter appropriate amounts of the application solutions, individually and sequentially, into the aqueous layer of the paddy. Control plants were treated in the same manner with the solvent blank. Applications were made so that all treated plant material received the same concentrations of acetone and crop oil concentrate.
The treated plants and control plants were placed in a greenhouse as described above and water was added as needed to maintain a paddy flood. After approximately 3 weeks the condition of the test plants as compared with that of the untreated plants was determined visually and scored on a scale of 0 to 100 percent where 0 corresponds to no injury or growth inhibition and 100 corresponds to complete kill.
Colby's equation was used to determine the herbicidal effects expected from the mixtures (Colby, S. R. Calculation of the synergistic and antagonistic response of herbicide combinations. Weeds 1967, 15, 20-22.).
The following equation was used to calculate the expected activity of mixtures containing two active ingredients, A and B: Expected=A+B−(A×B/100)

The values below come from patent publication US9730445B2, “Herbicidal compositions comprising 4-amino-3-chloro-5-fluoro-6-(4-chloro-2-fluoro-3-methoxyphenyl) pyridine-2-carboxylic acid or a derivative thereof and fungicides” (DOW AGROSCIENCES LLC, priority 2013, dated 2017).

Where “and” joins values, the source holds several entries; their conditions need not be identical. Identical values can stand only once.

Consider `COc1c(Cl)ccc(-c2nc(C(=O)OCc3ccccc3)c(Cl)c(N)c2F)c1F` [Compound A Benzyl Ester], for which the “Visual Weed Control (%)—20 DAA BRAPP Obs” value in assay [1] (20 DAA, r9-11 ester 8/16/32 g ae/ha alone, r12 isotianil 200 g ai/ha alone, r13-15 ester 8/16/32 + 200) was 85% and 90% and 60%. The “Visual Weed Control (%)—21 DAA BRAPP Obs” value in assay [1] (r29-30 ester 8/16 g ae/ha alone, r31-33 hexaconazole 25/50/100 g ai/ha alone, r34-39 ester 8/16 at each of 25, 50, 100) was 55% and 60%; in assay [1] (r38-39 ester 8/16 g ae/ha alone, r40 isotianil 380 g ai/ha alone, r41-42 ester 8/16 + 380), 55% and 60%. In addition, the “Visual Weed Control (%) - 19 DAA CYPRO Obs” value is on record as 20% in assay [2] (Compound A Benzyl Ester 8 g ae/ha), 88% in assay [2] (Compound A Benzyl Ester 16 g ae/ha) and 87% in assay [2] (Compound A Benzyl Ester 32 g ae/ha).
